According to ChEMBL document CHEMBL6153027, “Recent report on indoles as a privileged anti-viral scaffold in drug discovery” (Eur J Med Chem, 2025):
≈ marks a conversion by molar mass, not a printed value.

Assays:
[1] = test system: Sindbis virus; test: Antiviral activity against Sindbis virus infected in African green monkey Vero cells assessed as reduction in virus induced cytopathic effect; format: functional, organism-based
[2] = Inhibition of Influenza A virus H5N1 neuraminidase
[3] = Toxicity in African green monkey Vero cells assessed as reduction in cell viability incubated for 3 days by MTT assay; format: cell-based; details: chlorocebus sabaeus, time 3 day, read-out: TC50
[4] = test system: Human alphaherpesvirus 2; test: Antiviral activity against HSV-2 infected in African green monkey Vero cells assessed as reduction in virus-induced cytopathic effect incubated for 3 days by MTT assay; format: functional, organism-based; details: Human alphaherpesvirus 2, Vero, 72 h
[5] = test system: Potato virus Y; test: Antiviral activity against Potato Virus Y; format: functional, organism-based
[6] = test system: SARS-CoV-2; format: functional, organism-based, Vero E6; details: Severe acute respiratory syndrome coronavirus 2, Vero C1008
[7] = Inhibition of Zika virus NS5 RNA dependent RNA polymerase
[8] = Cytotoxicity against African green monkey Vero cells assessed as reduction in cell viability measured after 72 hrs by MTT assay; format: toxicity, cell-based; details: chlorocebus sabaeus
[9] = test system: C8166; test: Cytotoxicity against human C8166 cells assessed as reduction in cell viability incubated for 3 days by MTT assay; format: functional; details: C8166, 72 h, time 3 day
[10] = test system: Human immunodeficiency virus 1; test: Antiviral activity against HIV-1 IIIB infected in human C8166 cells assessed as reduction in viral replication; format: functional, organism-based; details: Human immunodeficiency virus 1, IIIB
[11] = test system: Venezuelan equine encephalitis virus; test: Antiviral activity against VEEV TC-83 infected in human U-87 MG cells assessed as reduction in viral replication; format: functional, organism-based; details: TC-83, U-87 MG
[12] = test system: SARS-CoV-2; format: functional, organism-based, Vero E6; details: Severe acute respiratory syndrome coronavirus 2, Vero C1008, 48 h
[13] = test system: Respiratory syncytial virus; test: Antiviral activity against RSV-A infected in human A549 cells at 0.01 MOI assessed as inhibition of virus induced cytopathic effect […] by MTT assay; format: functional, organism-based
[14] = target: T1, Human immunodeficiency virus type 1 integrase (Human immunodeficiency virus 1, UniProt Q7ZJM1); test: Inhibition of HIV-1 integrase
[15] = test system: Human immunodeficiency virus 1; test: Antiviral activity against HIV-1 infected in human MT4 cells assessed as reduction in viral replication; format: functional, organism-based; details: Human immunodeficiency virus 1, MT4
[16] = Inhibition of Influenza A virus A/California/04/2009 (H1N1) domain of PA endonuclease expressed in Escherichia coli BL21 (DE3) cells
[17] = test system: Influenza A virus; test: Antiviral activity against Influenza virus […] (A/California/07/2009 pdm09) infected in human Calu-3 cells assessed as viral RNA measured after 3 days by RT-PCR assay; format: functional, organism-based; details: Calu-3, 72 h
[18] = test system: Human immunodeficiency virus 1; test: Antiviral activity against wild type HIV-1 NL4-3 infected in human MT4 cells assessed as reduction in viral replication; format: functional, organism-based; details: Human immunodeficiency virus 1, NL4-3, MT4
[19] = Cytotoxicity against African green monkey Vero E6 cells assessed as reduction in cell viability measured for 3 days by CCK-8 assay; format: toxicity, cell-based; details: chlorocebus sabaeus, Vero E6 cells (Vero C1008); time 3 day
[20] = target: T1, Human immunodeficiency virus type 1 integrase; test: Inhibition of recombinant HIV-1 integrase by strand transfer activity
[21] = test system: SARS-CoV-2; format: functional, organism-based; details: Severe acute respiratory syndrome coronavirus 2, Wuhan-Hu-1, Vero C1008
[22] = test system: Respiratory syncytial virus; test: Antiviral activity against RSV-A2 infected in human HEp-2 cells incubated for 4 days by Cell Titer Glo assay; format: functional, organism-based; details: A2, HEp-2, 96 h
[23] = test system: Zika virus; test: Antiviral activity against Zika virus infected in African green monkey Vero cells assessed as reduction in virus induced cell death; format: functional, organism-based
[24] = test system: SARS-CoV-2; format: functional, organism-based, Vero E6; details: Severe acute respiratory syndrome coronavirus 2, Vero C1008, 48 h; remark: listed apart in the source
[25] = test system: SARS-CoV-2; format: functional, organism-based; details: Severe acute respiratory syndrome coronavirus 2, Wuhan-Hu-1, Vero C1008; remark: listed apart in the source
[26] = Inhibition of N-terminal SARS-CoV-2 Main protease using ESATLQSGLRKAK-QXL-NH2 as substrate incubated for 60 mins by FRET assay; set-up: species or system Severe acute respiratory syndrome coronavirus 2
[27] = test system: Vesicular stomatitis virus; test: Antiviral activity against Vesicular stomatitis virus; format: functional, organism-based
[28] = test system: Respiratory syncytial virus; test: Antiviral activity against Respiratory syncytial virus; format: functional, organism-based; details: human respiratory syncytial virus
[29] = test system: Human respirovirus 1; test: Antiviral activity against Human parainfluenza virus 1 infected in Vero cells assessed as reduction in viral replication at 10 ug/ml relative to control; format: functional; set-up: scale not given: the % may be the effect or the level left; details: dose 10 µg/ml
[30] = test system: Tobacco mosaic virus; test: Antiviral activity against Tobacco mosaic virus; format: functional, organism-based

T1 sequence (Q7ZJM1 whole entry): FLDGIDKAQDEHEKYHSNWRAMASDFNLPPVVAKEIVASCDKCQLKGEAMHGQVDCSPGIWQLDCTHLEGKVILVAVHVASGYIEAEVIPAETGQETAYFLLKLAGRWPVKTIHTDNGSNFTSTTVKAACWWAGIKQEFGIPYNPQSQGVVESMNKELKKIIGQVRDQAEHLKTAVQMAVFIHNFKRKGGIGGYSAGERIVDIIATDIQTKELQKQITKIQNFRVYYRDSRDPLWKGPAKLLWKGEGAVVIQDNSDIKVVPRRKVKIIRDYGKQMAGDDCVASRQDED

## O=C(NN1C(=O)CSC12CCCCC2)c1[nH]c2ccc(Cl)cc2c1-c1ccccc1
[1]
  EC50: 1.9 µM

## CC1=NCCc2c1[nH]c1ccccc21
[2]
  IC50: 0.023 µg/mL (≈ 0.125 µM)

## CCOC(=O)c1c(CSc2ccccc2)n(C)c2cc(Br)c(O)c(CN(C)C)c12 [UMIFENOVIR]
[3]
  CC50 at 72 h: 32.3 µg/mL (≈ 67.7 µM)
[4]
  IC50: 4.77 µg/mL (≈ 9.99 µM)

## CCOc1ccc(C2=NN(C(N)=S)C(C3CN(Cc4ccc(C(F)(F)F)cc4)c4ccccc43)C2)cc1F (configuration not stated)
[5]
  EC50: 202 µg/mL (≈ 372 µM)

## CS(=O)(=O)Oc1ccc(C(=O)/C=C2/C(=O)Nc3ccccc32)cc1
[6]
  IC50: 3.8 µM

## COc1ccc([C@H]2N(Nc3ccccc3)C(=O)C3Cc4ccccc4N32)cc1O[Si](C)(C)C(C)(C)C (mixture of isomers)
[7]
  IC50: 10.7 µM
[8]
  CC50 at 72 h: > 100 µM

## CCc1ccc(S(=O)(=O)n2cc(C(=O)CCc3nnc(-c4ccccc4)o3)c3ccc(C)cc32)cc1
[9]
  CC50: > 469 µM
[10]
  EC50: 4.62 µM

## CN1C(=O)/C(=N\NC(=S)Nc2ccc(S(N)(=O)=O)cc2)c2cc(Br)ccc21
[1]
  EC50: > 2 µM

## Cc1cncc(C#Cc2c[nH]c3ncc(-c4ccc(C(=O)NC5CC5)cc4)cc23)c1
[11]
  EC50: 1.8 µM
[12]
  EC50: 1.82 µM
[13]
  EC50: 0.18 µM

## O=C1c2c(ccc(O)c2O)CN1Cc1ccc(O)cc1
[14]
  IC50: 0.0075 µM
[15]
  EC50: ~4 µM
[16]
  IC50: 0.0075 µM
[17]
  EC50: ~4 µM

## CCS(=O)(=O)N(c1ccc(C(=O)/C=C2/C(=O)Nc3ccccc32)cc1)S(=O)(=O)CC
[6]
  IC50: 3.42 µM

## COP(=O)(c1cc(C)cc(OCC#N)c1)c1c(C(N)=O)[nH]c2ccc(Cl)cc12 (configuration not stated)
[18]
  EC50: 0.08 nM

## CC1=NCCc2c1[nH]c1cc(O)ccc21 [HARMALOL]
[2]
  IC50: 0.02 µg/mL (≈ 0.0999 µM)

## CN1C(=O)/C(=N\NC(=S)Nc2ccc(S(N)(=O)=O)cc2)c2cc(F)ccc21
[1]
  EC50: > 4 µM

## O=C(Oc1cncc(Cl)c1)c1cccc2c1CCN2
[19]
  CC50 at 72 h: > 100 µM

## O=C(O)/C(O)=C/C(=O)c1cn(S(=O)(=O)C(=O)c2ccc(F)cc2)c2ccc(Br)cc12
[20]
  IC50: 0.2 µM

## O=C1C(=O)N(Cc2cccc3ccccc23)c2ccc(Br)cc21
[21]
  EC50: 6.8 µM
[22]
  EC50: 6.8 µM

## Cc1ccc(S(=O)(=O)n2cc(C(=O)/C=C3\OC(C)(C)OC3=O)c3cc(Br)ccc32)cc1
[20]
  IC50: 5.7 µM

## O=C(NCC1CCNCC1)c1cc2ccc(-c3ccoc3)cc2[nH]1
[23]
  IC50: 0.37 µM

## O=C(NCCc1ccc(N2CCOCC2)cc1)c1[nH]c2ccc(Cl)cc2c1CO
[24]
  IC50: 4.2 µM

## COc1ccc2c3c([nH]c2c1)C(C)=NCC3 [HARMALINE]
[2]
  IC50: 3.42 µg/mL (≈ 16 µM)

## O=C1C2Cc3ccccc3N2[C@@H](c2ccc(O)c(O)c2)N1Nc1ccc([N+](=O)[O-])cc1 (some centres not stated)
[7]
  IC50: 8.52 µM
[8]
  CC50 at 72 h: > 100 µM

## O=C1C(=O)N(Cc2ccc3ccccc3c2)c2ccccc21
[23]
  IC50: 0.32 µM

## NS(=O)(=O)c1ccc(NC(=S)N/N=C2\C(=O)Nc3ccc(OC(F)(F)F)cc32)cc1
[1]
  EC50: 2 µM

## O=C(NCC1CCNCC1)c1c[nH]c2cc(-c3ccoc3)c(-c3ccoc3)cc12
[25]
  IC50: 3.8 µM

## COc1ccc([C@H]2N(Nc3ccc([N+](=O)[O-])cc3)C(=O)C3Cc4ccccc4N32)cc1O[Si](C)(C)C(C)(C)C (mixture of isomers)
[7]
  IC50: 9.89 µM
[8]
  CC50 at 72 h: > 100 µM

## CCCCCCCCCCCCCCCCCc1nnc(SCCO)n1/N=C/c1cn(Cc2ccccc2)c2ccccc12
[26]
  IC50: 8.7 µM
[24]
  IC50: 87.6 µM

## C#CCCn1ccc2c(C3=N[C@@H](C(C)C)CO3)cccc21
[5]
  EC50: 256 µg/mL (≈ 913 µM)

## COc1cccc2[nH]c(C(=O)N[C@@H](CC(C)C)C(=O)N[C@@H](C[C@@H]3CCNC3=O)C(=O)c3nc4ccccc4s3)cc12
[19]
  CC50 at 72 h: > 100 µM

## NS(=O)(=O)c1ccc(NC(=S)N/N=C2\C(=O)Nc3ccc(Br)cc32)cc1
[1]
  EC50: 3 µM

## O=C1C[C@@H]2OCC=C3CN4CC[C@]56c7ccccc7N1[C@H]5[C@H]2[C@H]3C[C@H]46.O=S(=O)(O)O
[2]
  IC50: 11.85 µg/mL

## Cc1ccc2c(c1)C(=O)C(=O)N2Cc1ccc2ccccc2c1
[27]
  EC50: 6.8 µM
[28]
  EC50: 6.8 µM

## CC1CCCC2(C1)SCCN2NC(=O)c1[nH]c2ccc(S(N)(=O)=O)cc2c1-c1ccccc1 (configuration not stated)
[29]
  Activity: 95.46%

## CN1C(=O)/C(=N\NC(=S)Nc2ccc(S(N)(=O)=O)cc2)c2cc(OC(F)(F)F)ccc21
[1]
  EC50: > 20 µM

## CCOC(=O)c1c(C)n(C)c2ccc(OCCCOc3ccc(C(=O)/C=C/c4ccc(C)cc4)cc3)cc12
[30]
  EC50: 107 µg/mL (≈ 210 µM)

## CCc1ccc(S(=O)(=O)n2cc(C(=O)CN3CCOCC3)c3ccc(C)cc32)cc1
[10]
  EC50: 9.42 µM

## CCCCCCCCCCCCCCCCCc1nnc(SCC(O)CO)n1/N=C/c1cn(Cc2ccccc2)c2ccccc12 (configuration not stated)
[26]
  IC50: 8.93 µM
[24]
  IC50: 112 µM

## O=C(NCCc1ccc(N2CCCC2)cc1)c1[nH]c2ccc(Cl)cc2c1CO
[25]
  IC50: 3.42 µM
